Results from patent EP0188647B1, “Acylated derivatives of cytidine-diphosphate-choline, process for their preparation and their therapeutic use” (NEOPHARMED S.p.A., priority 1985, dated 1986).

[1] = control experiment, oral, 20 µmoles/kg, after 30 minutes, intestinal level

Text: The required data refer to the distribution of radioactivity in the animal and also to structural identity of the radioactive molecular species present in some of the more significant biological samples (liver, brain, faeces, gastric and intestinal contents).
The scheme of extraction consents the recovery of three different classes of labelled metabolites: • 1) Hydrosoluble metabolites, subsequently analysed by HPLC. • 2) Metabolites with high molecular weights, proteins and nucleic acids, recovered by thermal denaturation in a hydroalcoholic environment. • 3) Lipids, subsequently purified by chromatography on silica.

Row | SMILES | time of maximum uptake in the plasmatic component and in the organs (rat, in vivo, po) | total radioactivity, of that present in the administered dose (rat, in vivo, po) | double labelled CDP-choline administered found at intestinal level [1] | radioactivity present in the dose found at intestinal level [1]
1 | CCCCC(=O)Nc1ccn([C@@H]2O[C@H](COP(=O)(O)OP(=O)([O-])OCC[N+](C)(C)C)[C@@H](OC(=O)CCCC)[C@H]2OC(=O)CCCC)c(=O)n1 [trivaleryl-CDP-choline, N4-valeryl-2',3'-di-O-valeryl-CDP-choline] | 5 h | 30% | – | –
2 | C[N+](C)(C)CCOP(=O)(O)OP(=O)([O-])OC[C@H]1O[C@@H](n2ccc(N)nc2=O)[C@H](O)[C@@H]1O [CDP-choline, Cytidine-diphosphate-choline] | – | – | 0.2% | not more than 5%
